The test has as its target T1, human glucocorticoid receptor (GR) complex (Homo sapiens, UniProt P04150).
T1 construct: made in house; host or cells: insect expression system (baculovirus lysate)
T1 sequence (P04150 1-777): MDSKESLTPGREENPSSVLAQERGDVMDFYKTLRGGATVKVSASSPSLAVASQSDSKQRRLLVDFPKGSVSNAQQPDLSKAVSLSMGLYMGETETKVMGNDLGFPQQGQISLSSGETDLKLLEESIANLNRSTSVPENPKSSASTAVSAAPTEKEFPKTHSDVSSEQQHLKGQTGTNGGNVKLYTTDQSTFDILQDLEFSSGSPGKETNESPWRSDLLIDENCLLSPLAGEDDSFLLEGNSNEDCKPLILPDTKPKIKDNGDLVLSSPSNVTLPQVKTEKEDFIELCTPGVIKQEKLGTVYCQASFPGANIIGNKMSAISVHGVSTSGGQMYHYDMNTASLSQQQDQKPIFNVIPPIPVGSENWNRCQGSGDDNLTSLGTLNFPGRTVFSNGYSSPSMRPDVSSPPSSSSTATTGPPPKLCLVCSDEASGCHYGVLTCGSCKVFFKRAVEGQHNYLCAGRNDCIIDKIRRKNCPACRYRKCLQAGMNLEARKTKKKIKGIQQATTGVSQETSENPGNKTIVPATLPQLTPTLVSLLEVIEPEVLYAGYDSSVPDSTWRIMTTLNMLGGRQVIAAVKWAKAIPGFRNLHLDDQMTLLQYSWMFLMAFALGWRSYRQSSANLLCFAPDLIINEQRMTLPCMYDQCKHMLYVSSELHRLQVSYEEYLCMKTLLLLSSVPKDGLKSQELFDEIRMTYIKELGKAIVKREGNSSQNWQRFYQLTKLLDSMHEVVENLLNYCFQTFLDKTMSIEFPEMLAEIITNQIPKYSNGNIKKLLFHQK
Nature of the test: Glucocorticoid Receptor Competitive Binding Assay (fluorescence polarization, TAMRA-labeled dexamethasone probe). The settings on record: qualitative statement; competition with TAMRA-labeled dexamethasone. As for the experimental part:
Compounds of the invention were evaluated for binding to the steroid receptor by a fluorescence polarization competitive binding assay.
A. Glucocorticoid Receptor Competitive Binding Assay
Step 1. Characterization of the Fluorescent Probe
The wavelengths for maximum excitation and emission of the fluorescent probe should first be measured. An example of such a probe is rhodamine (TAMRA)-labeled dexamethasone.
The affinity of the probe for the steroid receptor was then determined in a titration experiment. The fluorescence polarization value of the probe in assay buffer was measured on an SLM-8100 fluorometer using the excitation and emission maximum values described above. Aliquots of expression vector lysate were added and fluorescence polarization was measured after each addition until no further change in polarization value was observed. Non-linear least squares regression analysis was used to calculate the dissociation constant of the probe from the polarization values obtained for lysate binding to the probe.
Step 2. Screening for Inhibitors of Probe Binding
This assay uses fluorescence polarization (FP) to quantitate the ability of test compounds to compete with tetramethyl rhodamine (TAMRA)-labeled dexamethasone for binding to a human glucocorticoid receptor (GR) complex prepared from an insect expression system. The assay buffer was: 10 mM TES, 50 mM KCl, 20 mM Na2MoO4. 2H2O, 1.5 mM EDTA, 0.04% w/v CHAPS, 10% v/v glycerol, 1 mM dithiothreitol, pH 7.4. Test compounds were dissolved to 1 mM in neat DMSO and then further diluted to 10× assay concentration in assay buffer supplemented with 10% v/v DMSO. Test compounds were serially diluted at 10× assay concentrations in 10% DMSO-containing buffer in 96-well polypropylene plates. […] Positive controls were reaction mixtures containing no test compound; negative controls (blanks) were reaction mixtures containing 0.7 μM to 2 μM dexamethasone. […] IC50 values were determined by iterative non-linear curve fitting of the FP signal data to a 4-parameter logistic equation.
As for `CC(C)(CC(O)(Cc1ccnc2ccccc12)C(F)(F)F)c1ccc2ccccc2c1O` (centres unmarked) [2-(4,4,4-Trifluoro-3-hydroxy-1,1-dimethyl-3-quinolin-4-ylmethylbutyl)naphthalen-1-ol], the “activity in the GR binding assay” value is recorded as “potent activity”.

For `CC(C)(CC(O)(Cc1ccnc(Cl)c1)C(F)(F)F)c1cc(F)ccc1O` (centres unmarked) [1,1,1-Trifluoro-4-(5-fluoro-2-hydroxyphenyl)-4-methyl-2-(2-chloropyridin-4-ylmethyl)pentan-2-ol], the “activity in the GR binding assay” value is “potent activity”.

Take `CCC(O)(Cc1cc2ccccc2[nH]1)CC(C)(C)c1cc(F)ccc1OC` (centres unmarked) [5-(5-Fluoro-2-methoxyphenyl)-3-(indol-2-ylmethyl)-5-methylhexan-3-ol]: the “activity in the GR binding assay” value is reported as “potent activity”.

With `CC(C)(CC(O)(Cc1ccnc2ccccc12)C(F)(F)F)c1cc(Br)cc2c1OCCC2` (centres unmarked) [4-(6-Bromochroman-8-yl)-1,1,1-trifluoro-4-methyl-2-quinolin-4-ylmethylpentan-2-ol], the “activity in the GR binding assay” value was “potent activity”.

Regarding `COc1ccc(Br)cc1C(C)(C)CC(O)(Cc1cc2c(C)cc(C#N)cc2[nH]1)C(F)(F)F` (centres unmarked) [2-[4-(5-Bromo-2-methoxyphenyl)-2-hydroxy-4-methyl-2-trifluoromethylpentyl]-4-methyl-1H-indole-6-carbonitrile], the “activity in the GR binding assay” value is given as “potent activity”.

Consider `Cc1ccc(C(C)(C)CC(O)(Cc2ccnc3ccccc23)C(F)(F)F)cc1` (centres unmarked) [1,1,1-Trifluoro-4-methyl-2-quinolin-4-ylmethyl-4-p-tolylpentan-2-ol], for which the “activity in the GR binding assay” value was “potent activity”.

For `COC(=O)c1ccc2[nH]c(CC(O)(CC(C)(C)c3ccc(F)cc3OC)C(F)(F)F)cc2c1` (centres unmarked) [2-[4-(4-Fluoro-2-methoxyphenyl)-2-hydroxy-4-methyl-2-trifluoromethylpentyl]-1H-indole-5-carboxylic acid methyl ester], the “activity in the GR binding assay” value is listed as “potent activity”.

As for `COc1ccc(F)cc1C(C)(C)CC(O)(Cc1cc2ncccc2[nH]1)C(F)(F)F` (centres unmarked) [1,1,1-Trifluoro-4-(5-fluoro-2-methoxyphenyl)-4-methyl-2-(1H-pyrrolo[3,2-b]pyridin-2-ylmethyl)pentan-2-ol], the “activity in the GR binding assay” value is given as “potent activity”.

Consider `Cc1c(CC(O)(CC(C)(C)c2cc(F)ccc2O)C(F)(F)F)[nH]c2cnccc12` (centres unmarked) [4-Fluoro-2-[4,4,4-trifluoro-3-hydroxy-1,1-dimethyl-3-(3-methyl-1H-pyrrolo[2,3-c]pyridin-2-ylmethyl)butyl]phenol], for which the “activity in the GR binding assay” value is “potent activity”.

As for `Cc1cccc(C)c1C(C)(C)CC(O)(Cc1ccnc2ccccc12)C(F)(F)F` (centres unmarked) [4-(2,6-Dimethylphenyl)-1,1,1-trifluoro-4-methyl-2-quinolin-4-ylmethylpentan-2-ol], the “activity in the GR binding assay” value is “potent activity”.

Consider `COc1ccc(F)cc1C(C)(C)CC(O)(Cc1nc2ccc(F)c(F)c2[nH]1)C(F)(F)F` (centres unmarked) [2-(6,7-Difluoro-1H-benzoimidazol-2-ylmethyl)-1,1,1-trifluoro-4-(5-fluoro-2-methoxyphenyl)-4-methylpentan-2-ol], for which the “activity in the GR binding assay” value was “potent activity”.

`CC(C)(CC(O)(Cc1cc2ccccc2[nH]1)C(F)(F)F)c1ccc(O)cc1` (centres unmarked) [4-[4,4,4-Trifluoro-3-hydroxy-3-(1H-indol-2-ylmethyl)-1,1-dimethylbutyl]phenol]: the “activity in the GR binding assay” value is on record as “potent activity”.

For `CC(C)(CC(O)(Cc1cc2cccc(F)c2[nH]1)C(F)(F)F)c1cccc2c1OCC2` (centres unmarked) [4-(2,3-Dihydrobenzofuran-7-yl)-1,1,1-trifluoro-2-(7-fluoro-1H-indol-2-ylmethyl)4-methylpentan-2-ol], the “activity in the GR binding assay” value is reported as “potent activity”.

In the case of `COC(=O)c1ccc2[nH]c(CC(O)(CC(C)(C)c3cc(Br)ccc3OC)C(F)(F)F)cc2c1` (centres unmarked) [2-[4-(5-Bromo-2-methoxyphenyl)-2-hydroxy-4-methyl-2-trifluoromethylpentyl]-1H-indole-5-carboxylic acid methyl ester], the “activity in the GR binding assay” value is given as “potent activity”.

Values taken from patent publication US7553966B2, “Glucocorticoid mimetics, methods of making them, pharmaceutical compositions, and uses thereof” (Boehringer Ingelheim Pharmaceuticals, Inc., priority 2002, dated 2009).
